Measured values as given in patent US6692695B1, “Industrial scale barrier technology for preservation of sensitive biological materials” (Quadrant Drug Delivery Limited, priority 1999, dated 2004).
One block for each compound: values may come before it.

How the values were obtained:
[1] = Potency of Amphotericin after foam drying and storage
Method: (8) Freeze-dried samples of Amphotericin B were rehydrated with 5 ml 40 wt % sucrose per vial. Then the solutions were transferred into 50 ml sterilized glass vials for future preservation by drying. Before drying, the vials were covered with gray butyl slotted rubber stoppers. The vials were dried inside a vacuum chamber. The vials were placed on the surface of a stainless steel shelf inside the chamber. The shelf temperature was controlled by circulating ethylene glycol/water antifreeze at a controlled temperature inside the shelf. Before the vacuum was applied the shelf temperature was decreased to 5° C. The hydrostatic pressure inside the chamber was decreased to 0.5 Torr. Under such conditions the suspension boiled for 30 min. The temperature of the shelf was then slowly (during 30 min) increased to 25° C. Visually, stable dry foams were formed inside the vials under these experimental conditions within 3 hours. After an additional 12 hours of drying at room temperature, the chamber was filled with the dry N2 gas and the rubber stoppers in a portion of the vials were pushed down. The vials were removed from the chamber and subsequently sealed with aluminum crimped seal. The samples were assayed immediately after drying and after 30 days of storage at 27.5° and 40° C. The results are shown in Table 1, together with the results obtained in the next experiment.
Another set of freeze-dried samples of Amphotericin B was rehydrated with 5 ml 40 wt % sucrose per vial. The solutions were then transferred into sterilized glass vials for future preservation by drying similar to that described above with additional drying at 45° C. for additional 24 hours. After that, the chamber was filled again with the dry N2 gas, the rubber stoppers were pushed down and the vials were sealed. The samples were assayed right after drying and after 30 day of storage at 27.5° and 40° C.

[2] = Glass transition temperature of foam-dried sucrose particles; type: physicochemical
Method: (1) In the first test, the equipment set-up consisted of a 4.5 inch internal diameter glass tube connected to a standard Virtis SL600 Unitop condenser section and heated via two laboratory style hot plates from Coming. The opposite end of the glass tube was closed. A 200 ml solution of sucrose 50% (w/w) in de-ionized water was introduced to a 2 L PET beverage bottle, commonly used for soft drinks. This would be considered to be a semi-rigid container. The bottle was placed in the tube and the sucrose solution was preserved by foam formation. After mechanically stable foam was formed, the bottle containing the foam was held overnight at 0.3 Torr and 25° C. The next morning the vacuum was broken with air. Total process time was 23 hours. Immediately following tube disassembly, the bottle was removed from the tube and purged with dry nitrogen for approximately one minute. The bottle was capped with the accompanying plastic screw top. The foam appeared to completely fill the bottle. […] Next the bottle was struck against the laboratory counter about 8-10 times with light-moderate force. All of the foam inside broke apart into discreet particles with the visual and flow characteristics of sand. A small amount of material remained adhering to the bottle interior. The glass transition temperature of the coarse particulate material was 18° C.
(2) In a second test, the glass tube used in the first test was replaced with a jacketed glass tube. The jacket was filled with water and connected to a recirculating heater bath. The bottle used previously was replaced with a 1-gallon capacity polyethylene plastic storage bag, commonly available in supermarkets. This would be considered to be a flexible container. The bag was taped in place to a plastic holder to keep the bag open. The bag was filled with 150 ml of 50% (w/w) sucrose in de-ionized water. Primary foam drying was essentially completed 90 minutes later and the heating source switched to hot plates. Conditions at that point were 31° C. and 0.1 5 Torr. The foam was then held overnight. […]

[3] = Urokinase activity after foam drying and storage
Method: (7) Freeze-dried samples of Urokinase were rehydrated with 2 ml of 40 wt % sucrose. The solutions were then transferred to 20 ml sterilized glass vials for future preservation by drying. Before drying, the vials were covered with gray slotted rubber stoppers. The vials were dried inside a vacuum chamber. The vials were sitting on the surface of a stainless steel shelf inside the chamber. The shelf temperature was controlled by circulating ethylene glycol/water antifreeze at a controlled temperature inside the shelf. Before the vacuum was applied the shelf temperature was decreased to 5° C. Then the hydrostatic pressure inside the chamber was decreased to 0.5 Torr. Under such conditions, the suspension boiled for 30 min. […] Visually, under these experimental conditions, stable dry foams were formed inside the vials within 3 hours. After an additional 12 hours of drying at room temperature, the temperature was increased to 45° C. and maintained for an additional 24 hours. After that the chamber was filled with dry N2 gas, the rubber stoppers were pushed down and the vials were sealed with aluminum crimp seals.
The samples were assayed immediately after drying and after 30 days of storage at 40° C. After drying the Urokinase, activity was 93% of the initial activity. […]

Potency of Amphotericin (%) ([1]; Control): 126%
Potency of Amphotericin (%) After 30 days at 27.5° C. ([1]; Td = 25° C.): 114%
Potency of Amphotericin (%) After 30 days at 40° C. ([1]; Td = 25° C.): 95%
Potency of Amphotericin (%) After drying ([1]; Td = 25° C.): 108%
Potency of Amphotericin (%) After 30 days at 27.5° C. ([1]; Td = 45° C.): 102%
Potency of Amphotericin (%) After 30 days at 40° C. ([1]; Td = 45° C.): 104%
Potency of Amphotericin (%) After drying ([1]; Td = 45° C.): 103%
Compound: C[C@@H]1[C@H](O)[C@@H](C)/C=C/C=C/C=C/C=C/C=C/C=C/C=C/[C@H](O[C@@H]2O[C@H](C)[C@@H](O)[C@H](N)[C@@H]2O)C[C@@H]2O[C@](O)(C[C@@H](O)C[C@@H](O)[C@H](O)CC[C@@H](O)C[C@@H](O)CC(=O)O[C@H]1C)C[C@H](O)[C@H]2C(=O)O [Amphotericin, Amphotericin B]

glass transition temperature ([2]; 150 ml 50% (w/w) in 1-gallon polyethylene bag, 31° C., total 71 hours): 18.33 °C
glass transition temperature ([2]; 200 ml 50% (w/w) in 2 L PET bottle, held overnight at 0.3 Torr and 25° C., total 23 hours): 18 °C
glass transition temperature ([2]; 300 ml 50% (w/w) in larger bag, up to 55° C. and 0.2 Torr, total 23.5 hours): 33.3 °C
Compound: OC[C@H]1O[C@@](CO)(O[C@H]2O[C@H](CO)[C@@H](O)[C@H](O)[C@H]2O)[C@@H](O)[C@@H]1O [sucrose]

Compound: Urokinase
activity, % of the initial activity ([3]; after 30 days of storage at 40° C.): 90%
activity, % of the initial activity ([3]; after drying (40 wt % sucrose, up to 45° C.)): 93%
